ChEMBL document CHEMBL1201862, “PubChem BioAssay data set” (2004)
The source made the active and inactive calls.

Tests used:
[1] = target: T1, Apoptotic protease-activating factor 1 (Homo sapiens, UniProt O14727); experiment: SAR analysis of small molecule Activators of Apaf-1 in a Fluorescent assay.; type: functional; details: read-out: EC50_Mean;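 further: caspase-3 cleavage of fluorogenic Rh110 DEVD substrate downstream of apoptosome activation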
T1 sequence (O14727 whole entry): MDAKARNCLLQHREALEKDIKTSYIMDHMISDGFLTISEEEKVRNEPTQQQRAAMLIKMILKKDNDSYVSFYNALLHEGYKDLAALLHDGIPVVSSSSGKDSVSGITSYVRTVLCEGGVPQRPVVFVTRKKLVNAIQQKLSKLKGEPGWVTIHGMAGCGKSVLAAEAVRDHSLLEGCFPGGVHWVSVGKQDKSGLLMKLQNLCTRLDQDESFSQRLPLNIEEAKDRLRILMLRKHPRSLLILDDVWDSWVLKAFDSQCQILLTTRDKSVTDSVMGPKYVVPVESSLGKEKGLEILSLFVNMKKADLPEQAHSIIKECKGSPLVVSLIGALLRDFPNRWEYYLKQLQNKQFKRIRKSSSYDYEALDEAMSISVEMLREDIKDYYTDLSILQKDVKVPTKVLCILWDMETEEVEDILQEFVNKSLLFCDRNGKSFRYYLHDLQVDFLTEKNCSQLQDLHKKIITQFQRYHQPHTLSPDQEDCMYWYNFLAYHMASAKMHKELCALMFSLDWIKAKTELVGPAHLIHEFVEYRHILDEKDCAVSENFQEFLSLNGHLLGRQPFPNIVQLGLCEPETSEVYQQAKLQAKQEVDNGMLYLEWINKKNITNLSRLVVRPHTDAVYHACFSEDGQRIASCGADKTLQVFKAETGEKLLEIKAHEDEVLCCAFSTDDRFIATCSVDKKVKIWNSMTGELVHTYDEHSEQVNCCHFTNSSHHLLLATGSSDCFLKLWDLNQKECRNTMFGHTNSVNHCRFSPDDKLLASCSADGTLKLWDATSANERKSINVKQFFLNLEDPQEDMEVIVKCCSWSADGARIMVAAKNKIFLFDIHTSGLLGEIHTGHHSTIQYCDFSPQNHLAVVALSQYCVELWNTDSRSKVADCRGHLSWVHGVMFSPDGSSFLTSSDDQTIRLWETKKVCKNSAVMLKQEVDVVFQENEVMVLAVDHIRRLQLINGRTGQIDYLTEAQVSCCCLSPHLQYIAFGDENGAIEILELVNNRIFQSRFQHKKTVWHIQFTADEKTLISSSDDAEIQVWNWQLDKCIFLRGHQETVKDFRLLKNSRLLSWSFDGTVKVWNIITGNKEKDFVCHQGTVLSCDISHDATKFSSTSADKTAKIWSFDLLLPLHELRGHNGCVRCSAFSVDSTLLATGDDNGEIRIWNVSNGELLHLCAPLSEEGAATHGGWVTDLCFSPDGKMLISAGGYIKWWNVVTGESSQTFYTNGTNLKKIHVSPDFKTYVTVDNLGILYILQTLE

[2] = target: T2, Streptokinase A (Streptococcus pyogenes serotype M1, UniProt P10520); experiment: viability-normalized secreted streptokinase activity reduction – plasminogen activation absorbance, OD405, dose response (AID 1914); type: functional, Streptococcus pyogenes M1 GAS;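 further: secreted streptokinase activity via plasminogen activation per viability signal from cell pellet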
T2 sequence (P10520 whole entry): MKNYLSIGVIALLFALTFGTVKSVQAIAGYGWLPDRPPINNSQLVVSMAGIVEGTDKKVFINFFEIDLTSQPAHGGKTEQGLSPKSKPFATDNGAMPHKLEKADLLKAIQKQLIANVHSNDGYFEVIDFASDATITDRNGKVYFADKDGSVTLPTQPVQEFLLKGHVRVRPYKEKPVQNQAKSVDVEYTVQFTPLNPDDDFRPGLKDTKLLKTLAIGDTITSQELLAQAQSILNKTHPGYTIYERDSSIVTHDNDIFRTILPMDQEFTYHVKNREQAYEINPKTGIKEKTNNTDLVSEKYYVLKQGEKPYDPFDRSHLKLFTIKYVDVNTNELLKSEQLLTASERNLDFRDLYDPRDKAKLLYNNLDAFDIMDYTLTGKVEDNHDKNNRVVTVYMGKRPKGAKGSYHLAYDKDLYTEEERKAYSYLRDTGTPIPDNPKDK

[3] = target: T3, Cysteine protease ATG4B (Homo sapiens, UniProt Q9Y4P1); type: functional;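 further: Fluorescence-based dose-response confirmation assay measuring inhibition of ATG4B activity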
T3 sequence (Q9Y4P1 whole entry): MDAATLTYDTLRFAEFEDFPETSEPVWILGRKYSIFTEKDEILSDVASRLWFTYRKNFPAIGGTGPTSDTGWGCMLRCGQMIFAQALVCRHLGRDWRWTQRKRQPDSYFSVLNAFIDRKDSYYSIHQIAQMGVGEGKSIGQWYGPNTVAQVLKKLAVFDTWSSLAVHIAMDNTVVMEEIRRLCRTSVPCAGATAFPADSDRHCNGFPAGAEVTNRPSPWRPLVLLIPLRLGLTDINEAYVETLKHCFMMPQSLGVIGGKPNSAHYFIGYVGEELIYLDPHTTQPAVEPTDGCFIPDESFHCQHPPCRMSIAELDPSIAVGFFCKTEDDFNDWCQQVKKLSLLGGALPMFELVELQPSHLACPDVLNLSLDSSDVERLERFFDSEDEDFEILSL

[4] = target: Phospholipase A2 (Homo sapiens, UniProt P04054); type: functional;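 further: confirmatory dose-response counterscreen on phospholipase A2, testing hits that came from an ultra-high-throughput screen for ATG4B inhibitors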
Sequence of Phospholipase A2 (P04054 whole entry): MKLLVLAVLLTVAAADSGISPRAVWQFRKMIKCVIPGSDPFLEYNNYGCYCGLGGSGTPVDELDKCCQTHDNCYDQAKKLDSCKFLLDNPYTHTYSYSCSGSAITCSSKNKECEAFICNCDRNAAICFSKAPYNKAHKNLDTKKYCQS

[5] = system: Streptococcus sp. 'group A'; experiment: Streptococcus pyogenes SK(-)GAS viability under kanamycin – luminescence, BacTiterGlo, confirmation, counter-screen for streptokinase expression inhibitor project, dose response (AID 1900); type: functional, organism-based
[6] = target: Genome polyprotein (dengue virus type 2, UniProt P29990); experiment: flavivirus cap methylation enzyme inhibition – biochemical, confirmation dose response, primary screen (AID 588689); type: functional
Sequence of Genome polyprotein (P29990 2492-3391 limits assumed): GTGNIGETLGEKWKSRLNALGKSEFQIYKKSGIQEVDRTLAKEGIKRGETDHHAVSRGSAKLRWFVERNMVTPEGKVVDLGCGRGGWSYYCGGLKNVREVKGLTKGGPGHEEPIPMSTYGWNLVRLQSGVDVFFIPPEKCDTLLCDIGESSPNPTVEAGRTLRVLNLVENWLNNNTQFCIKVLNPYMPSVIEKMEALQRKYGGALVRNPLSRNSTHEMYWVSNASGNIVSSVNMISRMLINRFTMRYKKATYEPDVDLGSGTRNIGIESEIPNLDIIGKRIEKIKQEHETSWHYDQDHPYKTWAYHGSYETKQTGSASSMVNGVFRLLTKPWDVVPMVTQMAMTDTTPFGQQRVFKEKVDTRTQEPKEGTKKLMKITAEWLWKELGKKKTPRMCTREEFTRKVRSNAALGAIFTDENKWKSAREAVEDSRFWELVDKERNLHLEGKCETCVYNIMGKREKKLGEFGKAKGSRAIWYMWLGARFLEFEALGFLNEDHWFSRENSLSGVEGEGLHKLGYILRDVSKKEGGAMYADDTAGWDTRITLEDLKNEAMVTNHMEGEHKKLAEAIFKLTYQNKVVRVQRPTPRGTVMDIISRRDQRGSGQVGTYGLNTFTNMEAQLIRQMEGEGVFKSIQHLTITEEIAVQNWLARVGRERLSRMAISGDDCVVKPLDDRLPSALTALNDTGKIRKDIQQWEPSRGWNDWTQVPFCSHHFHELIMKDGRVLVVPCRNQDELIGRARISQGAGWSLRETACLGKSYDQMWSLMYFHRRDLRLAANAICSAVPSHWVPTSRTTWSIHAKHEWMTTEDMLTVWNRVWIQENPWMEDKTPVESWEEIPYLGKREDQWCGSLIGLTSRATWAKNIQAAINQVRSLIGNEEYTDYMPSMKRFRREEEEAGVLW

[7] = system: Streptococcus; experiment: GAS UMAA2166 growth inhibition – luminescence, BacTiterGlo, counter-screen for streptokinase expression inhibitor project, dose response (AID 1915); type: functional, organism-based;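 further: potency for reduction of bacterial viability or growth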
[8] = target: FAD-linked sulfhydryl oxidase ALR (Homo sapiens, UniProt P55789); experiment: ALR-catalysed DTT oxidation blockers – biochemical, H2O2 detection, luminescence, cherry-pick, dose response (AID 493248)
Sequence of FAD-linked sulfhydryl oxidase ALR (P55789 whole entry): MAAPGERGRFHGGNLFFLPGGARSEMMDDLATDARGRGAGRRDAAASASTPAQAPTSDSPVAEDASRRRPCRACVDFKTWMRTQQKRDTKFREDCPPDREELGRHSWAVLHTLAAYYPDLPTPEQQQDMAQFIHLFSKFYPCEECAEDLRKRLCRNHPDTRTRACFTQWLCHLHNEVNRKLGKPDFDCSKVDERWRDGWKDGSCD

[9] = target: DNA (cytosine-5)-methyltransferase 1 (Homo sapiens, UniProt P26358); experiment: inhibition of DNA methylation by DNMT1 – biochemical, fluorescent molecular beacon, confirmation (AID 602386); type: functional
Sequence of DNA (cytosine-5)-methyltransferase 1 (P26358 whole entry): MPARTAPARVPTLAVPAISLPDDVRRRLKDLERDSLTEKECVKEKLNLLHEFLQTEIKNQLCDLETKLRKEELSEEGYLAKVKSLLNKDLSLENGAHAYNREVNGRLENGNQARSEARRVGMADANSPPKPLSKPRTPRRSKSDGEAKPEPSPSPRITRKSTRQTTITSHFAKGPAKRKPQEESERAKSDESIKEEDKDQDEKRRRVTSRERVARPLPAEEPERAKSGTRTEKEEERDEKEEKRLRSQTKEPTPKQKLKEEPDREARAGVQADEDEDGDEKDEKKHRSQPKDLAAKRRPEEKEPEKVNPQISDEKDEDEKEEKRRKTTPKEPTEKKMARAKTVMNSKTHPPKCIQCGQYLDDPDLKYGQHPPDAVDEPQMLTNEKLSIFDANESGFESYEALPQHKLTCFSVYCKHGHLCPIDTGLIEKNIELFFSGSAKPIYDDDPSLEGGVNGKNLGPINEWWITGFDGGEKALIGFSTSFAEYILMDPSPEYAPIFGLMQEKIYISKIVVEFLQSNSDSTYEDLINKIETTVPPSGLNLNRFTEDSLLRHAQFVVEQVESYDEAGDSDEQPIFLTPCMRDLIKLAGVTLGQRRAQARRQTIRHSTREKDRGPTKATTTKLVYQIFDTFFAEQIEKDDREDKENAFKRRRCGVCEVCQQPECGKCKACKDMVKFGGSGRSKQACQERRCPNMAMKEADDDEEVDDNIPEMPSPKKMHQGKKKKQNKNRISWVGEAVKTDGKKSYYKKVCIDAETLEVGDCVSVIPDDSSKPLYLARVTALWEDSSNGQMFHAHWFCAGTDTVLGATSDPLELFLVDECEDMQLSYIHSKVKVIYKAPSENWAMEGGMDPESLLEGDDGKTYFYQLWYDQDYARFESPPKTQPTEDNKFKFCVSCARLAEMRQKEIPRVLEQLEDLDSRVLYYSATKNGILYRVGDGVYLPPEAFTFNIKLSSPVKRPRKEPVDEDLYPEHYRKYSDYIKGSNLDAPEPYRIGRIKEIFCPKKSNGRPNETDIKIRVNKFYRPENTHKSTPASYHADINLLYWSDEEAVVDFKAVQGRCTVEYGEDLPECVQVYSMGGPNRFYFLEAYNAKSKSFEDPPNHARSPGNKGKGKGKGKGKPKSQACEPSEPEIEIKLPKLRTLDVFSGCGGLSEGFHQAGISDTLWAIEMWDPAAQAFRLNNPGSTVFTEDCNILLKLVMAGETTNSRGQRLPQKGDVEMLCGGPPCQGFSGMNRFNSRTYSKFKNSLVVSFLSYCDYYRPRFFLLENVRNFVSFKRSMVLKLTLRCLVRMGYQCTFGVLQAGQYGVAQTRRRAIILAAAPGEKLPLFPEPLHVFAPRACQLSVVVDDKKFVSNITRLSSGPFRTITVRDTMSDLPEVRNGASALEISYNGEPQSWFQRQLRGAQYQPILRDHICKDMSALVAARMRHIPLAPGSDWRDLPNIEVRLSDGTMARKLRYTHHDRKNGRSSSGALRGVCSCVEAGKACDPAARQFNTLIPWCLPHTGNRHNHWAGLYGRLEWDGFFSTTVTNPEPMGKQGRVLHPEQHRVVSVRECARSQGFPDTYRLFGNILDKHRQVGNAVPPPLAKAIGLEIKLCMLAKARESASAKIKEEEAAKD

[10] = viability of uninfected HEp-2 cells – cell-based, HTS, cytotoxicity control for RSV inhibitor project, dose response (AID 2410); type: functional; details: human respiratory syncytial virus
[11] = target: Adenosylmethionine-8-amino-7-oxononanoate aminotransferase (Mycobacterium tuberculosis, UniProt P9WQ81); experiment: Mycobacterium tuberculosis BioA enzyme inhibitor Measured in Biochemical System Using Plate Reader - 2163-02_Inhibitor_Dose_CherryPick_Activity.; type: functional, Mycobacterium tuberculosis UT205
Sequence of Adenosylmethionine-8-amino-7-oxononanoate aminotransferase (P9WQ81 whole entry): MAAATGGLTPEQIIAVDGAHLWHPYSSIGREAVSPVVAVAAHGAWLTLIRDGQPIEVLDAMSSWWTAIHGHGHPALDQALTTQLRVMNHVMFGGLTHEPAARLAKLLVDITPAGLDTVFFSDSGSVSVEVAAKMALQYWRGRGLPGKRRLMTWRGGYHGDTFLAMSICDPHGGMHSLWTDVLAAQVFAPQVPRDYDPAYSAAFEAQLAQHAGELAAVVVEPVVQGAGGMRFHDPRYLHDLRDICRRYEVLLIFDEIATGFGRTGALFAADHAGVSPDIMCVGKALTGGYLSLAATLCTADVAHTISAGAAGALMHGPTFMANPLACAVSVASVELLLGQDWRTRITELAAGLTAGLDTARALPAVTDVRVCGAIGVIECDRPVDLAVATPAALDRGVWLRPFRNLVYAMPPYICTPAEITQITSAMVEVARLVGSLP

[12] = target: T4, Corticotropin-releasing factor receptor 2/Corticotropin-releasing factor-binding protein (Homo sapiens, UniProt P24387+Q13324); experiment: activators of CRF receptor 2 with binding protein – uHTS hits, confirmation (AID 602473); type: functional; details: read-out: EC50_Mean
T4 sequence (Q13324 whole entry): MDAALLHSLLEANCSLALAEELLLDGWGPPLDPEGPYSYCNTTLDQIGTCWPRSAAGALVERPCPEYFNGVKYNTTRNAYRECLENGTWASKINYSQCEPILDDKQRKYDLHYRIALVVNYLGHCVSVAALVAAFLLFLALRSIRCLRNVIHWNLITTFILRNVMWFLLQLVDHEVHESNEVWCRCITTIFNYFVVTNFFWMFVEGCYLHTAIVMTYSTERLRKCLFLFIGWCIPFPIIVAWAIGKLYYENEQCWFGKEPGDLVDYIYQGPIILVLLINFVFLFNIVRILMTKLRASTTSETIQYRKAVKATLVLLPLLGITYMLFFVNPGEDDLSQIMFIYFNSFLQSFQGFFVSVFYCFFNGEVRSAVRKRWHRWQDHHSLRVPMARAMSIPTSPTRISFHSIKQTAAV
T4 sequence (P24387 whole entry): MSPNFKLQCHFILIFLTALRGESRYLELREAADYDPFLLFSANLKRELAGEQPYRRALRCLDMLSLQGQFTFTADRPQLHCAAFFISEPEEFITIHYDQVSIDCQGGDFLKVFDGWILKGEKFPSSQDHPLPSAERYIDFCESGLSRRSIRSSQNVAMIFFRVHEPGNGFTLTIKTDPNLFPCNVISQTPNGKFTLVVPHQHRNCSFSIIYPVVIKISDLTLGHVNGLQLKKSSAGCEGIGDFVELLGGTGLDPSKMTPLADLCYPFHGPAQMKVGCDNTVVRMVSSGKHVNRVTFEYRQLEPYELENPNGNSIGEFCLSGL

[13] = target: T4, Corticotropin-releasing factor receptor 2/Corticotropin-releasing factor-binding protein; experiment: Dose Response confirmation of uHTS hits for small molecule antagonists of the CRF-binding protein and CRF-R2 receptor complex.; type: functional; details: read-out: IC50_Mean
[14] = target: T5, Orexin receptor type 2 (Homo sapiens, UniProt O43614); experiment: Counterscreen assay for antagonists of the orexin 1 receptor (OX1R; HCRTR1): Fluorescence-based cell-based dose response assay for antagonists of the orexin 2 receptor (OX2R; HCRTR2), run by assay provider.; type: functional
T5 sequence (O43614 whole entry): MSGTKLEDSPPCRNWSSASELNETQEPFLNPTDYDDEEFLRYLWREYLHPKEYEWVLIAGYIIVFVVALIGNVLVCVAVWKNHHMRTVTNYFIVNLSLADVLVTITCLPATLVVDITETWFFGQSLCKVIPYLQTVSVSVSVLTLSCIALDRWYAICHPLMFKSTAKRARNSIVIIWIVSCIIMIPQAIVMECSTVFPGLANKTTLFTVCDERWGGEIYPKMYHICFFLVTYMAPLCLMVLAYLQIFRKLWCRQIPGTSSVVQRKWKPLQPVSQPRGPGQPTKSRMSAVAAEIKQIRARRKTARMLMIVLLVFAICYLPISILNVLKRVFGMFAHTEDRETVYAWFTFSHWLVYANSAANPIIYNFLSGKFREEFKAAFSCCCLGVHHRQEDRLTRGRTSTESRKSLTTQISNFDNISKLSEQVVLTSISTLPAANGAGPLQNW

[15] = system: CHO-K1; experiment: (§1) Counterscreen for antagonists of the orexin 1 receptor (OX1R; HCRTR1): Homogeneous time resolved fluorescence (HTRF)-based cell-based dose response assay to identify antagonists of the parental CHO-K1 cell line. [Related pubchem assays (depositor defined):AID434989, AID435008, AID463079, AID485270, AID492963, AID492964, AID492965, AID493232, AID504699, AID504701]; type: functional; details: Cricetulus griseus
[16] = target: T6, Orexin/Hypocretin receptor type 1 (Homo sapiens, UniProt O43613); experiment: Homogeneous Time Resolved Fluorescence (HTRF)-based cell-based high throughput dose response assay for antagonists of the orexin 1 receptor (OX1R; HCRTR1). [Related pubchem assays (depositor defined):AID434989, AID435008, AID463079, AID485270, AID492963, AID492964, AID492965, AID493232, AID504717, AID504718]; type: functional
T6 sequence (O43613 whole entry): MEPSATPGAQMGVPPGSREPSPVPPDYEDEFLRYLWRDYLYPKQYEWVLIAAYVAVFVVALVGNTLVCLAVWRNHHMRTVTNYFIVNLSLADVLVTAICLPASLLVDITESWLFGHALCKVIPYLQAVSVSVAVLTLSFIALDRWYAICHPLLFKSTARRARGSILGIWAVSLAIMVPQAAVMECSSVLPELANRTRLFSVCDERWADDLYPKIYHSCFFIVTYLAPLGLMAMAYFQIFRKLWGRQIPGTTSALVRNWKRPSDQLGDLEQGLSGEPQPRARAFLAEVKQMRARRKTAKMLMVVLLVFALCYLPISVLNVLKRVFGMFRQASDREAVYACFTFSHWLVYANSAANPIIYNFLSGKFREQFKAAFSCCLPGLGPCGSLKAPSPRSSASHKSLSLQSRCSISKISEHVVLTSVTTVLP

[17] = target: T5, Orexin receptor type 2; experiment: Counterscreen assay for antagonists of the orexin 1 receptor (OX1R; HCRTR1): Homogeneous Time Resolved Fluorescence (HTRF)-based cell-based dose response assay for antagonists of the orexin 2 receptor (OX2R; HCRTR2), run by assay provider.; type: functional
[18] = target: Induced myeloid leukemia cell differentiation protein Mcl-1 (Homo sapiens, UniProt Q07820); type: functional
Sequence of Induced myeloid leukemia cell differentiation protein Mcl-1 (Q07820 whole entry): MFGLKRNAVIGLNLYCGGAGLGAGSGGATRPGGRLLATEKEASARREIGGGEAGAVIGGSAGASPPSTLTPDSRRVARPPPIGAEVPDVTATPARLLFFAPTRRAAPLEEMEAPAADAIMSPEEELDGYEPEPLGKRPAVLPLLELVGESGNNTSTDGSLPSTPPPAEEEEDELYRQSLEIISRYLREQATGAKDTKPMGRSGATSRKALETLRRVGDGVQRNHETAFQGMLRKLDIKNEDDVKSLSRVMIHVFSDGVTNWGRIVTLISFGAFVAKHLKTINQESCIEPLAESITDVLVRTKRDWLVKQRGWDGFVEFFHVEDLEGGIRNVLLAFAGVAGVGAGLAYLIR

[19] = target: T6, Orexin/Hypocretin receptor type 1; experiment: Fluorescence-based cell-based high throughput dose response assay for antagonists of the orexin 1 receptor (OX1R; HCRTR1). [Related pubchem assays (depositor defined):AID434989, AID435008, AID463079, AID485270, AID492963, AID492964, AID492965, AID493232, AID504717, AID504718]; type: functional
[20] = as §1, with “Fluorescence-based” for “Homogeneous time resolved fluorescence (HTRF)-based”, “cell-based high throughput” for “cell-based”, “CHO” for “CHO-K1”; type: functional
[21] = viability of HCT116 lacking mutant beta-catenin – cell-based, human colon tumor, dose response (AID 1045); type: functional;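 further: HCT116 colon tumor cells with beta catenin knocked out; cells exposed to compound for 60 hours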
[22] = viability of PTEN-deleted HCT116 cells – cell-based, HCT116 PTEN knockout, dose response (AID 1047); type: functional;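 further: HCT116 colon tumor cells with PTEN knocked out; cells exposed to compound for 60 hours before readout; potency for loss of cell viability measured by luminescence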

O=C(C1CC(c2ccc(F)cc2)=NO1)N1CCCc2ccccc21 (configuration not stated)
EC50 [1]: > 100 µM (inactive)

COc1ccc(N2C(=O)CC3(CC(c4ccccc4F)=NO3)C2=O)cc1 (configuration not stated)
EC50 [1]: > 100 µM (inactive)

O=C(O)CN1C(=O)/C(=C\c2cc(Br)ccc2OCc2ccc(Cl)cc2)SC1=S
EC50 [2]: > 50 µM (not active)
IC50 [3]: 7.13 µM (active)
IC50 [4]: 4.68 µM (active)
EC50 [5]: 1.58 µM (active)
IC50 [6]: 24.8 µM (active)
EC50 [7]: 3.08 µM (active)
AC50 [8]: 1.58 µM (active)
IC50 [9]: 7.36 µM (active)
CC50 [10]: 14.9 µM (active)

O=C(Nc1ccc2snnc2c1)N1CCN(c2ccccc2)CC1
AC50 [11]: 0.0986 µM (active)
AC50 [8]: 0.913 µM (active)

COc1ccc(/C=C2\CCc3ccccc3C2=O)c(OC)c1OC
IC50 [3]: 38.6 µM (inactive)
IC50 [4]: 31.7 µM (inactive)
EC50 [12]: > 53 µM (inactive)
IC50 [13]: > 47.1 µM (inactive)

Sc1nnc(-c2cc(-c3ccccc3)[nH]n2)n1/N=C/c1c2ccccc2cc2ccccc12
IC50 [14]: > 88.8 µM (inactive)
IC50 [15]: > 66.2 µM (inactive)
IC50 [16]: 0.585 µM (active)
IC50 [17]: > 50 µM (inactive)
IC50 [18]: 6.05 µM (not active)
IC50 [19]: 23.7 µM (inactive)
IC50 [20]: > 49.8 µM (inactive)

Cc1nc(-c2cccnc2)sc1C(=O)Nc1cccc(C(F)(F)F)c1
AC50 [11]: 3.76 µM (active)
EC50 [21]: 26.8 µM (active)
EC50 [22]: 15.7 µM (active)
